Reference: US5792775A (priority 1996, dated 1998)
“Also recorded” adds a separate entry of the source. Read-outs that look alike come from different tables or passages of the source.

Key:
[1] = biological target: serotonin transporter (5HTT) (Rattus norvegicus, UniProt P31652); test: Serotonin transporter binding ([^3 H]citalopram), NOVASCREEN
Excerpt: (§1) Serotonin (5-HTT), norepinephrine transporter (NET) and muscarinic m1 and m2 receptor binding data were provided by NOVASCREEN.

muscarinic m1 receptors = biological target: T1, muscarinic m1 receptors (Rattus norvegicus, UniProt P08482); test: biochemical; format: binding
T1 sequence (P08482 1-460): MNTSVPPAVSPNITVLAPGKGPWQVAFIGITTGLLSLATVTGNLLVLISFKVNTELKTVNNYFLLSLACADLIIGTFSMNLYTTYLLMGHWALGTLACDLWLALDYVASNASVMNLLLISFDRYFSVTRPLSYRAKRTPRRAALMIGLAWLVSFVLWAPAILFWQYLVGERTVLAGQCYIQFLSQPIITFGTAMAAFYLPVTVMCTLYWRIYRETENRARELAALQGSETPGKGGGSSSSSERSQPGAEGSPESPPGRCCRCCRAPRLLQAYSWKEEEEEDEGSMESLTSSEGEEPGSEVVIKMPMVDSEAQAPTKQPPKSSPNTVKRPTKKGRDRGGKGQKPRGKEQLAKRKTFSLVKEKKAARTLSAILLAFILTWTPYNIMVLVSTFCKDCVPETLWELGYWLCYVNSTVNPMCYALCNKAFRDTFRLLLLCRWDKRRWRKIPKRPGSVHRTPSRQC

[2] = biological target: norepinephrine transporter (NET) (Rattus norvegicus, UniProt Q63380); test: biochemical; format: binding
Chain of norepinephrine transporter (NET) (Q63380 1-617): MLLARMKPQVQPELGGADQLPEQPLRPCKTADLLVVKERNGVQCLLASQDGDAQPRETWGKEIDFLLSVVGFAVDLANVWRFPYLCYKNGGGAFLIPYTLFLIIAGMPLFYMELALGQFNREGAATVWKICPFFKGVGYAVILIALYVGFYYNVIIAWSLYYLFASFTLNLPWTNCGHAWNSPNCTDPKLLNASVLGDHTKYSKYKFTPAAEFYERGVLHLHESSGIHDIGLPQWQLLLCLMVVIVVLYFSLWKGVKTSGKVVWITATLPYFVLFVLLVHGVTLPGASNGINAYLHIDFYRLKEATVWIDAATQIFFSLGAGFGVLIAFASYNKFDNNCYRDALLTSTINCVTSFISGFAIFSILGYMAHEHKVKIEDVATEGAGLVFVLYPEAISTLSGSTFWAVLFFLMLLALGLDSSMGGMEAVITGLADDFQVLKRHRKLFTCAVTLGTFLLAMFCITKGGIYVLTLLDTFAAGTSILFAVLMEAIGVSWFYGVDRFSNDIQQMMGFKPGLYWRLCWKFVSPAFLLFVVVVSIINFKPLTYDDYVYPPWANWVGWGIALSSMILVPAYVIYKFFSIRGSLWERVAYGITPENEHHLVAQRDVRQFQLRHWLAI

[3] = system: dopamine uptake, rat caudate putamen; format: biochemical
[4] = biological target: T2, dopamine transporter (DAT) (Rattus norvegicus, UniProt P23977); test: Displacement of [^3 H]WIN 35,428 binding (Dopamine Transporter Binding Assay); conditions: for Ki: Table III, displacement of [^3 H]WIN 35,428, rat caudate putamen, % error in parentheses
T2 construct: brains removed to an ice-cooled dish for dissection of the caudate putamen; from tissue; host or cells: rat caudate putamen, washed membranes of male Sprague-Dawley rats (Taconic)
T2 sequence (P23977 whole entry): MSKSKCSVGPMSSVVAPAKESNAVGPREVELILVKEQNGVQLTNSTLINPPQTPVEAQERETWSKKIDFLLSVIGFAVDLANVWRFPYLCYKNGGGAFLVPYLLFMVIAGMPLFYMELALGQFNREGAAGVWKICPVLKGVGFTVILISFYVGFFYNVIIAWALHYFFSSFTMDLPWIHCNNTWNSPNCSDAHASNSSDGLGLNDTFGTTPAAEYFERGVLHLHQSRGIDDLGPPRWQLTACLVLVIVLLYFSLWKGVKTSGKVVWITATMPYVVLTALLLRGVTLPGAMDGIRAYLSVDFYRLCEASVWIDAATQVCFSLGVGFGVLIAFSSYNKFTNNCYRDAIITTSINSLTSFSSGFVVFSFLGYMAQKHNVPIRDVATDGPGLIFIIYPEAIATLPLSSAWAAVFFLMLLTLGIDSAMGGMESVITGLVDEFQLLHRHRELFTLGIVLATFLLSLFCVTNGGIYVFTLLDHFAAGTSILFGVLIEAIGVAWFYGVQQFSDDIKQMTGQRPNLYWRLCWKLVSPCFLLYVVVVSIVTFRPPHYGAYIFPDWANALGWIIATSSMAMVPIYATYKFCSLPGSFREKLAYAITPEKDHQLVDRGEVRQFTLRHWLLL

muscarinic m2 receptors = biological target: T3, muscarinic m2 receptors (Rattus norvegicus, UniProt P10980); test: Muscarinic m2 receptor binding ([^3 H]AFDX 384), NOVASCREEN; conditions: for muscarinic m2 affinity relative to dopamine transporter affinity: in words
T3 sequence (P10980 1-466): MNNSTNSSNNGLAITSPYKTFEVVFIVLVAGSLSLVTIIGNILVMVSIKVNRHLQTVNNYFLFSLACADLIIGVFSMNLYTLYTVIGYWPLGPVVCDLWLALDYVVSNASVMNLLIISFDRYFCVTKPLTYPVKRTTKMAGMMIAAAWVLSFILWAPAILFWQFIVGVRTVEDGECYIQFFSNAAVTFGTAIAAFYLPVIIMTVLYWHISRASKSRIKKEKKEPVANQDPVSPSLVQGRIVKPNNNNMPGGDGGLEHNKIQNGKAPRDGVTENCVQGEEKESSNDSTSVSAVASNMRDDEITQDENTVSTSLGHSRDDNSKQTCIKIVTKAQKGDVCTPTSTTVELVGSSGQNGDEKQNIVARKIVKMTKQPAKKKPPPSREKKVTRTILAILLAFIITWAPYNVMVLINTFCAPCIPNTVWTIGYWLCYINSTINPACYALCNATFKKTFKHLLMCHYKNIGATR
Excerpt: as §1

[5] = read-out: NET, % Inhibition at 10 μM
[6] = Table IV, head prints no unit, IC50 in nM, read-out: [^3 H]DAU (inhibition of [^3 H]-Dopamine Uptake)
[7] = Table V, rat caudate putamen, read-out: [^3 H]DA Uptake Inhibition IC50
[8] = Table III footnote b, read-out: m2, % Inhibition of radiolabeled ligand binding
[9] = Table III, footnote d, read-out: 5HTT Ki value in nM (bracketed)

Chain of serotonin transporter (5HTT) (P31652 whole entry): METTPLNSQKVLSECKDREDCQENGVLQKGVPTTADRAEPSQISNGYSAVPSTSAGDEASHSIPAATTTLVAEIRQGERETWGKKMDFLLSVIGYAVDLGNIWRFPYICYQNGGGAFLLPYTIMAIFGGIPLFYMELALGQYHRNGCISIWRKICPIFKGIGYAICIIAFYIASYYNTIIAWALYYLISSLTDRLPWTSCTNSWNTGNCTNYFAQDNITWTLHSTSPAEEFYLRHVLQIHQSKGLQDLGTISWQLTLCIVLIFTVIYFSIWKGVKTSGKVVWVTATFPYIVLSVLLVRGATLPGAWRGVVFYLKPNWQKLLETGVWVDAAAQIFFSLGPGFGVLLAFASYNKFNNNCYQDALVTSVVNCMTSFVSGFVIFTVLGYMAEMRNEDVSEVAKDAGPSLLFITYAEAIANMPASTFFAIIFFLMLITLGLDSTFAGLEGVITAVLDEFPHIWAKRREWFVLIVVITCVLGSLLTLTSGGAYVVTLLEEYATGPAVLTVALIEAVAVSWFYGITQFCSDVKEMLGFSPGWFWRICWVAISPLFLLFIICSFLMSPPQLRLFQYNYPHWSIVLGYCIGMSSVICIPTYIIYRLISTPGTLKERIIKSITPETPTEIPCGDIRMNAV

| SMILES | IC50 [3, 6] | inhibition at 10 µM ([1]; read-out: 5HTT (% I@10 μM)) | Ki (muscarinic m1 receptors; Table III, read-out: m1, Ki) | inhibition at 10 µM ([2]; read-out: NET (% I@10 μM)) | Ki [4] | Ki (muscarinic m2 receptors; Table III) | IC50 [3, 7] | further results |
| --- | --- | --- | --- | --- | --- | --- | --- | --- |
| Fc1ccc(CN2[C@@H]3CC[C@H]2C[C@@H](OC(c2ccc(F)cc2)c2ccc(F)cc2)C3)cc1 [JKW 009] | 204 nM | – | – | – | – | – | – | Ki [1]: 53.4 nM; Ki (muscarinic m1 receptors): 0.45 nM; inhibition at 10 µM [2, 5]: 60% |
| CCc1ccc(C(O[C@H]2C[C@H]3CC[C@@H](C2)N3C)c2ccccc2)cc1 (some centres unmarked) [Compound 7q] | – | 42.7% | 12.6 nM | 32.7% | 520 nM | 703 nM | 984 nM | – |
| CN1[C@@H]2CC[C@H]1C[C@@H](OC(c1ccc(Br)cc1)c1ccc(Br)cc1)C2 [Compound 7i] | – | 41% | – | 41.1% | 91.6 nM | – | 34 nM | lower affinity for muscarinic m1 receptors than the parent benztropine (muscarinic m1 receptors): > 70 fold; inhibition at 10 µM (muscarinic m2 receptors; [8]): 66% |
| CN1[C@@H]2CC[C@H]1C[C@@H](OC(c1ccc(F)cc1)c1ccc(Cl)c(Cl)c1)C2 (some centres unmarked) [Compound 7l] | – | 80.3% | 33 nM | 57.8% | 18.9 nM | 369 nM | 24 nM | Ki [1, 9]: > 691 nM; Ki [2]: > 9000 nM |
| Fc1ccc(C(O[C@H]2C[C@H]3CC[C@@H](C2)N3Cc2ccccc2)c2ccc(F)cc2)cc1 [JHW 005] | 285 nM | – | – | – | – | – | – | Ki [1]: 1810 nM; Ki (muscarinic m1 receptors; Table IV, read-out: m1, Ki): 2490 nM; muscarinic m1 affinity relative to dopamine transporter affinity (muscarinic m1 receptors; in words): significantly lower binding affinities at the muscarinic m1 and m2 receptors as compared to binding affinities at the dopamine transporter; Ki (muscarinic m2 receptors; Table IV): 276 nM; muscarinic m2 affinity relative to dopamine transporter affinity (muscarinic m2 receptors): significantly lower binding affinities at the muscarinic m1 and m2 receptors as compared to binding affinities at the dopamine transporter |
| CN1[C@@H]2CC[C@H]1C[C@@H](OC(c1ccccc1)c1ccc([N+](=O)[O-])cc1)C2 (some centres unmarked) [Compound 7f] | – | 54% | 7.1 nM | 29% | 197 nM | 41.9 nM | 219 nM | Ki [1, 9]: > 3570 nM |
| Cc1ccc(C(O[C@H]2C[C@H]3CC[C@@H](C2)N3C)c2ccccc2)cc1 (some centres unmarked) [Compound 7p] | – | 35.4% | 2.7 nM | 31.8% | 187 nM | 37.5 nM | 512 nM | – |
| CN1[C@@H]2CC[C@H]1C[C@@H](OC(c1ccccc1)c1ccc(Br)cc1)C2 (some centres unmarked) [Compound 7h] | – | 39% | 3.7 nM | 37% | 37.9 nM | 39.1 nM | 29 nM | – |
| CCCCN1[C@@H]2CC[C@H]1C[C@@H](OC(c1ccc(F)cc1)c1ccc(F)cc1)C2 [JHW 007] | – | – | – | – | – | – | – | Ki (muscarinic m1 receptors): 527 nM; muscarinic m1 affinity relative to dopamine transporter affinity (muscarinic m1 receptors): significantly lower binding affinities at the muscarinic m1 and m2 receptors as compared to binding affinities at the dopamine transporter; Ki (muscarinic m2 receptors; Table IV): 308 nM; muscarinic m2 affinity relative to dopamine transporter affinity (muscarinic m2 receptors): significantly lower binding affinities at the muscarinic m1 and m2 receptors as compared to binding affinities at the dopamine transporter; IC50 ([3]; Table IV footnote d: biphasic inhibition curve, IC50 in nM, read-out: [^3 H]DAU (inhibition of [^3 H]-Dopamine Uptake), biphasic inhibition curve): 371 nM |
| CN1[C@@H]2CC[C@H]1C[C@@H](OC(c1ccccc1)c1ccc(C(C)(C)C)cc1)C2 (some centres unmarked) [Compound 7n] | – | 24.7% | 148 nM | 37.6% | – | – | 4460 nM | inhibition at 10 µM (muscarinic m2 receptors; [8]): 54% |
| Fc1ccc(C(O[C@H]2C[C@H]3CC[C@@H](C2)N3CCCc2ccccc2)c2ccc(F)cc2)cc1 [JHW 010] | 227 nM | – | – | – | – | – | – | Ki (muscarinic m1 receptors): 273 nM; Ki (muscarinic m2 receptors; Table IV): 499 nM |
| COc1ccc(C(O[C@H]2C[C@H]3CC[C@@H](C2)N3C)c2ccc(OC)cc2)cc1 [Compound 7e] | – | 31% | 39.6 nM | 34% | – | 1000 nM | 2880 nM | – |
| C=CCN1[C@@H]2CC[C@H]1C[C@@H](OC(c1ccc(F)cc1)c1ccc(F)cc1)C2 [AHN 2-005, N-allyl-4',4"-difluorobenztropine] | 14 nM | – | – | – | – | – | – | Ki [1]: 1970 nM; Ki (muscarinic m1 receptors; Table IV, read-out: m1, Ki): 89.1 nM; inhibition at 10 µM [2, 5]: 22.1%; Ki (muscarinic m2 receptors; Table IV): 254 nM |
| CN1[C@@H]2CC[C@H]1C[C@@H](OC(c1ccccc1)c1ccc(C#N)cc1)C2 (some centres unmarked) [Compound 7g] | – | 40% | – | 16% | 196 nM | 74 nM | 222 nM | Ki (muscarinic m1 receptors; read-out: m1, Ki): 7.1 nM |
| CN1[C@@H]2CC[C@H]1C[C@@H](OC(c1ccccc1)c1ccc(F)cc1)C2 (some centres unmarked) [Compound 7j] | – | 35.2% | 1.1 nM | 37.9% | – | 15 nM | – | – |
| CN1[C@@H]2CC[C@H]1C[C@@H](OC(c1ccccc1)c1ccc(Cl)cc1)C2 (stereo partly drawn) [Compound 7a, 4'-Cl-3α-(diphenylmethoxy)tropane] | – | 34% | – | 32% | – | – | 115 nM | – |
| CN1[C@@H]2CC[C@H]1C[C@@H](OC(c1ccccc1)c1ccc(Cl)c(Cl)c1)C2 (some centres unmarked) [Compound 7k] | – | 66.2% | 12.5 nM | 56.5% | 22.1 nM | 141 nM | 47 nM | Ki [1, 9]: > 1790 nM; Ki ([2]; read-out: NET Ki value in nM (bracketed), Table III, footnote d): > 4870 nM |
| COC(=O)[C@H]1[C@@H](OC(=O)c2ccccc2)C[C@@H]2CC[C@H]1N2C [cocaine, reference compound] | – | – | – | – | – | – | – | mode of displacement of [^3 H]WIN 35,428 binding ([4]; monophasic vs. biphasic): biphasic displacement; also recorded: revealed two binding sites |
| Fc1ccc(C(O[C@H]2C[C@H]3CC[C@@H](C2)N3)c2ccc(F)cc2)cc1 [AHN 2-003, N-nor-4',4"-difluorobenztropine] | 10 nM | – | – | – | – | – | – | Ki (muscarinic m1 receptors; Table IV, read-out: m1, Ki): 90.7 nM; Ki [2]: > 8000 nM; Ki (muscarinic m2 receptors; Table IV): 620 nM |
| Cc1ccc(C(O[C@H]2C[C@H]3CC[C@@H](C2)N3C)c2ccc(C)cc2)cc1 [Compound 7o] | – | 35.5% | 47.2 nM | 35.1% | 420 nM | 716 nM | 2540 nM | – |
| Fc1ccc(C(O[C@H]2C[C@H]3CC[C@@H](C2)N3CC2CC2)c2ccc(F)cc2)cc1 [JHW 013] | 180 nM | – | – | – | – | – | – | Ki [1]: 53.4 nM; Ki (muscarinic m1 receptors; Table IV, read-out: m1, Ki): 7.7 nM; Ki [2]: 117 nM |
| CN1[C@@H]2CC[C@H]1C[C@@H](OC(c1ccc(Cl)cc1)c1ccc(Cl)cc1)C2 [Compound 7b] | – | – | – | 43% | – | 1490 nM | – | Ki [2]: > 6000 nM |
| COC(=O)[C@H]1[C@@H](c2ccc(F)cc2)C[C@@H]2CC[C@H]1N2C [[^3 H]WIN 35,428, 2β-carbomethoxy-3β-(4-fluorophenyl)tropane, reference compound] | – | – | – | – | – | – | – | Bmax, high affinity component of [^3 H]WIN 35,428 binding ([4]; high affinity component, LIGAND analysis): 445±338 fmol/mg protein; Bmax, low affinity component of [^3 H]WIN 35,428 binding ([4]; low affinity component, LIGAND analysis): 1995±559 fmol/mg protein |
| O=CN1[C@@H]2CC[C@H]1C[C@@H](OC(c1ccc(F)cc1)c1ccc(F)cc1)C2 [AHN 2-032] | 5380 nM | – | – | – | – | – | – | inhibition at 10 µM ([1]; Table IV footnote b, 10 μM, read-out: 5HHT, % Inhibition at 10 μM): 1.6%; inhibition at 10 µM (muscarinic m1 receptors; Table IV footnote b, 10 μM): 54%; inhibition at 10 µM [2, 5]: 29%; inhibition at 10 µM (muscarinic m2 receptors; Table IV footnote b, read-out: m2, % Inhibition at 10 μM): 62% |
| Fc1ccc(C(O[C@H]2C[C@H]3CC[C@@H](C2)N3CC=Cc2ccccc2)c2ccc(F)cc2)cc1 [AHN 2-006] | 184 nM | – | – | – | – | – | – | Ki [1]: 1490 nM; Ki (muscarinic m1 receptors): 240 nM; Ki [2]: 577 nM; Ki (muscarinic m2 receptors; Table IV): 1590 nM |
| COc1ccc(C(O[C@H]2C[C@H]3CC[C@@H](C2)N3C)c2ccccc2)cc1 (stereo partly drawn) [Compound 7d, 4'-methoxy-3α-(diphenylmethoxy)tropane] | – | 30.5% | 4.2 nM | 30.9% | – | 18.9 nM | 468 nM | – |
